The source of these data is paper PMC5870190, “A three-in-one-bullet for oesophageal cancer: replication fork collapse, spindle attachment failure and enhanced radiosensitivity generated by a ruthenium(II) metallo-intercalator” (Chemical Science, 2017).

The subject of one data set is FLO-1 cells. Briefly: Clonogenic survival assay with IR, FLO-1. Format: cell-based, human. The conditions noted are these: Ru1 2 μM or Cis 300 nM for 24 h before IR. The method, then:
(§1) Clonogenic survival assay. OE21, OE33 or FLO1 cells were treated with 2 µM Ru1 for 24 h before irradiation with 0-8 Gy using a 137Cs γ-irradiator (IBL637, CIS Bio Int.; dose rate = 0.809 Gy min−1). 1 h after irradiation, cells were detached using Trypsin and re-seeded in 6 well plates at a density of 300 – 20,000 cells/well in triplicate in an incrementally greater number of cells with increasing IR dose to ensure adequate colony formation. Cells were incubated for 7–14 days after re-seeding to allow colony formation before being fixed with 10% methanol, 10% acetic acid and stained with 0.4% methylene blue. OE33 cells required an additional formaldehyde fixation (4% in PBS, 5 mins) step before the addition of methylene blue solution or colony detachment occurred. Colonies containing 50 cells or greater were counted using a Gelcount instrument and accompanying software (Oxford Optronix). Plating efficiencies were determined for each treatment condition and normalised to an untreated control to provide the surviving fraction (S. F.). S.F. versus radiation dose curves were plotted in GraphPad Prism and fit using a second order polynomial function (R2 values > 0.99). Dose modifying factors (DMF) at a SF=0.1 were calculated using the equation: Dose modifying factor (DMF) = IR dose to give S.F. 0.1/IR dose plus compound to give S.F.0.1. […]

The test system of another data set is OE21 cells. Nature of the data set: Clonogenic survival assay with IR, OE21. The format is cell-based, human. The conditions noted are these: Ru1 2 μM or Cis 500 nM for 24 h before IR. The method, then: as §1
The subject of data set [1] is OE21 human oesophageal squamous cell carcinoma. Briefly: MTT assay, OE21 cells. The following applies: for IC50: MTT. The format is cell-based. As for the experimental part:
(§2) MTT assay. OE21, FLO-1 or hSAEC1-KT cells were seeded in 96 well plates at 20,000 cells/well (for 24 h treatment) or 10,000 cells/well (for 72 h treatment) and allowed to adhere for 24 h before treatment. OE33 cells were seeded in 48 well plates at 40,000 cells/well (24 h treatment) or 20,000 cells/well (72 h treatment). Cancer cell lines were treated with chemicals dissolved in RPMI media for consistency. After incubation, 0.5 mg/ml MTT (thiazolyl blue tetrazolium bromide) dissolved in serum-free medium was added for 60 minutes and the formazan product eluted using acidified isopropanol.
(§3) The absorbance at 540 nm was quantified by plate reader (reference wavelength 650 nm). The metabolic activity of the cell population was determined as a percentage of a negative (solvent) control. […]
(§4) For the determination of mutation induction, from the untreated and each treated condition, 2x10^5 cells were plated in 10 x 100 mm dishes in selective media (regular media

Another data set concerns OE33 cells. Briefly: Micronuclei formation, OE33. The format is cell-based, human. The conditions noted are these: OE33, 45 μM Ru1, 24 h incubation. The method, then: propidium iodide (PI) is standard to quantify DNA content using flow cytometry, bleed-through of the MLCT emission of […]
To remove these artefacts, a higher concentration of Ru1 (100 µM, 10 mins) was additionally applied post-incubation and fixation to treated and control samples, acting as a substitute DNA dye instead of PI. After staining, cells were centrifuged (1000 rpm, 5 mins) and re-suspended in PBS.
Samples were analysed using a Biosciences LSRII Flow Cytometer using the FL2 channel to collect (recognisable) cell-cycle […]
profiles. […] A minimum of
10,000 cells were counted for each sample and data were processed using FloJo software.
Microscopy and immunofluorescence. […]
emission was collected from 500-530 nm to prevent spectral overlap with Ru1 emission. γH2AX foci were counted using […]
as §3
Cell cultures were treated as stated, media containing detached/dead cells were removed and retained, and adherent collected by Trypsin and centrifugation. […] Trypan Blue negative and Trypan Blue positive cells were counted by haemocytometer. A minimum of 200 cells were counted for each sample. […]

The conditions of data set [2]: cited from earlier work.
The subject of data set [3] is hSAEC1-KT normal human small airway epithelial cells. Nature of the data set: MTT assay, hSAEC1-KT cells. Format: cell-based. The method, then:
as §2, §3, §4
On the technique in general: Tetrazolium dyes change colour on reduction, which living cells bring about.

By IC50 is commonly meant the concentration that inhibits the measured activity by half. Low readings indicate higher potency, high ones lower potency. With [Ru(phen)2(tpphz)]^2+ [Ru1], the S.F. was determined as 0.873 with FLO-1 cells (FLO-1, IR 0 Gy); 0.188 in the data set with FLO-1 cells (FLO-1, IR 2 Gy); 0.042 with FLO-1 cells (FLO-1, IR 4 Gy); 0.005 in the data set on FLO-1 cells (FLO-1, IR 6 Gy); 1.062 with OE21 cells (OE21, IR 0 Gy); 0.801 in the data set with OE21 cells (OE21, IR 2 Gy). The S.F. in the data set with OE21 cells (OE21, IR 4 Gy) amounted to 0.410; in the data set with OE21 cells (OE21, IR 6 Gy), 0.152; in the data set with OE21 cells (OE21, IR 8 Gy), 0.062. Further, the IC50 in data set [1] (OE21, 24 h constant exposure) amounted to 21 ± 4.2 µM; in data set [1] (OE21, 72 h constant exposure), 2.9 ± 1.5 µM; in data set [3] (24 h constant exposure) it was 78.5 ± 1.3 µM; in data set [3] (72 h constant exposure), 22 ± 2 µM. For the same substance, the “greater potency than cisplatin” value in data set [1] (OE21, 72 h incubation) is “two-fold”. Further, in the data set on OE33 cells, the “Cells with micronuclei, Percentage” value was 3.4%. Besides, in data set [2], the “log P” value is on record as “–1.24”.
